# Assay results taken from patent US8455475B2 (Gruenenthal GmbH, priority 2009, dated 2013).
# Assays:
# [1] = molecular target: T1, rat B1R (bradykinin receptor 1) (Rattus norvegicus, UniProt P97583); assay: FLIPR Ca2+ assay (Fluo-4) on CHO K1 cells stably transfected with the B1R gene of the rat (rB1R cells): % inhibition at 10 μM / IC50, agonist Des-Arg9-bradykinin; format: cell-based; settings: for inhibition at 10 µM: CHO-K1, rat B1R
# T1 construct: expressed in transfected cells; host or cells: CHO K1 cells
# T1 sequence (P97583 1-337): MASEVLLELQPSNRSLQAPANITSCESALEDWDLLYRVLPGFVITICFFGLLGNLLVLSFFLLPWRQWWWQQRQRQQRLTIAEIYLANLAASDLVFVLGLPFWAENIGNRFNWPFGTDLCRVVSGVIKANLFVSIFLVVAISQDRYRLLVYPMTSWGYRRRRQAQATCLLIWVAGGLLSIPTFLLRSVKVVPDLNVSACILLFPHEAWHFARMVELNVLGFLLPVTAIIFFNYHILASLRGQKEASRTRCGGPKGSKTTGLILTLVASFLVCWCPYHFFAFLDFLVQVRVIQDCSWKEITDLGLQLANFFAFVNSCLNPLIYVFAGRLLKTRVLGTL
# Procedure, shortened: (§1)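 Stable CHO K1 lines, Fluo-4 dye, probenecid-containing buffer. Cpd 10 μM or dose range, 10–20 min, then EC80 agonist (h: Lys-Des-Arg9-BK; r: Des-Arg9-BK). Readout peak FC; % inhibition vs max; IC50 from n=2–3, N≥2.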
# [2] = molecular target: T2, human B1R (bradykinin receptor 1) (Homo sapiens, UniProt P46663); assay: FLIPR Ca2+ assay (Fluo-4) on CHO K1 cells stably transfected with the human B1R gene (hB1R cells): % inhibition at 10 μM / IC50, agonist Lys-Des-Arg9-bradykinin; format: cell-based; settings: for inhibition at 10 µM: CHO-K1, human B1R
# T2 construct: expressed in transfected cells; host or cells: CHO K1 cells
# T2 sequence (P46663 1-353): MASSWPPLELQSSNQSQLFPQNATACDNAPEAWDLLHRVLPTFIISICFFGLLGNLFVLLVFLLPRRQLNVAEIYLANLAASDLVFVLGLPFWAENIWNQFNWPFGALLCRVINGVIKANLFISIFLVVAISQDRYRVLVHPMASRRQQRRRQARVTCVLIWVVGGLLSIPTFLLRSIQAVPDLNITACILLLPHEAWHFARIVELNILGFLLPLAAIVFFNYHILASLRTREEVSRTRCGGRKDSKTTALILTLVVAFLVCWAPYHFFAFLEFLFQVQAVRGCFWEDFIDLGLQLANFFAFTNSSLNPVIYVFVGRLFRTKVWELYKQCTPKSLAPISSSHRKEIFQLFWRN
# Procedure, shortened: as §1
Structure (SMILES),inhibition at 10 µM [1],inhibition at 10 µM [2],"% Inhibition (rat B1R) at 10 μM ([1]; rat B1R, 10 µM)","% Inhibition (human B1R) at 10 μM ([2]; human B1R, 10 µM)"
"COc1cc(C)c(C(=O)NC2CCc3ccc(C(=O)N4CCC5(CC4)CCC(c4ccc(F)cc4)(N(C)C)CC5)cc32)c(C)c1 (stereo not drawn) [Ind_CC-093, N-[6-[9-dimethylamino-9-(4-fluorophenyl)-3-azaspiro[5.5]undecane-3-carbonyl]-2,3-dihydro-1H-inden-1-yl]-4-methoxy-2,6-dimethyl-benzamide]",74%,34%,,
"COc1cc(C)c(C(=O)NC2CCc3ccc(C(=O)N4CCC5(CC4)CCN(c4ccncc4)C5)cc32)c(C)c1 (stereo not drawn) [Ind_CC-094, 4-methoxy-2,6-dimethyl-N-[6-(2-pyridin-4-yl-2,8-diazaspiro[4.5]decane-8-carbonyl)-2,3-dihydro-1H-inden-1-yl]-benzamide]",65%,42%,,
"O=C(NC1CCc2ccc(C(=O)N3CCC4(CC3)CCN(c3ccncc3)CC4)cc21)c1ccccc1Cl (stereo not drawn) [Ind_CC-095, 2-chloro-N-[6-(9-pyridin-4-yl-3,9-diazaspiro[5.5]undecane-3-carbonyl)-2,3-dihydro-1H-inden-1-yl]-benzamide]",,,99%,99%
"O=C(NC1CCc2ccc(C(=O)N3CCC4(CC3)CCN(c3cccnc3)CC4)cc21)c1ccccc1Cl (stereo not drawn) [Ind_CC-096, 2-chloro-N-[6-(9-pyridin-3-yl-3,9-diazaspiro[5.5]undecane-3-carbonyl)-2,3-dihydro-1H-inden-1-yl]-benzamide]",101%,91%,,
"O=C(NC1CCc2ccc(C(=O)N3CCC4(CC3)CCN(c3ccc(F)cc3)CC4)cc21)c1ccccc1Cl (stereo not drawn) [Ind_CC-097, 2-chloro-N-[6-[9-(4-fluorophenyl)-3,9-diazaspiro[5.5]undecane-3-carbonyl]-2,3-dihydro-1H-inden-1-yl]-benzamide]",90%,33%,,
"O=C(NC1CCc2ccc(C(=O)N3CCC4(CCN(Cc5ccncc5)CC4)CC3)cc21)c1ccccc1Cl (stereo not drawn) [Ind_CC-098, 2-chloro-N-[6-[9-(pyridin-4-yl-methyl)-3,9-diazaspiro[5.5]undecane-3-carbonyl]-2,3-dihydro-1H-inden-1-yl]-benzamide]",98%,34%,,
"CN(C)C1(c2ccc(F)cc2)CCC2(CCN(C(=O)c3ccc4c(c3)C(NC(=O)c3ccccc3Cl)CC4)CC2)CC1 (stereo not drawn) [Ind_CC-099, 2-chloro-N-[6-[9-dimethylamino-9-(4-fluorophenyl)-3-azaspiro[5.5]undecane-3-carbonyl]-2,3-dihydro-1H-inden-1-yl]-benzamide]",103%,39%,,
"O=C(NC1CCc2ccc(C(=O)N3CCC4(CCN(c5ccncc5)CC4)C3)cc21)c1ccccc1Cl (stereo not drawn) [Ind_CC-100, 2-chloro-N-[6-(8-pyridin-4-yl-2,8-diazaspiro[4.5]decane-2-carbonyl)-2,3-dihydro-1H-inden-1-yl]-benzamide]",104%,100%,,
"O=C(NC1CCc2ccc(C(=O)N3CCC4(CC3)CCN(c3ccncc3)C4)cc21)c1ccccc1Cl (stereo not drawn) [Ind_CC-101, 2-chloro-N-[6-(2-pyridin-4-yl-2,8-diazaspiro[4.5]decane-8-carbonyl)-2,3-dihydro-1H-inden-1-yl]-benzamide]",102%,100%,,
"O=C(NC1CCc2ccc(C(=O)N3CCC4(CC3)CCN(c3cccnc3)CC4)cc21)c1sccc1Cl (stereo not drawn) [Ind_CC-102, 3-chloro-N-[6-(9-pyridin-3-yl-3,9-diazaspiro[5.5]undecane-3-carbonyl)-2,3-dihydro-1H-inden-1-yl]-thiophene-2-carboxylic acid amide]",100%,87%,,
"O=C(NC1CCc2ccc(C(=O)N3CCC4(CC3)CCN(c3ccc(F)cc3)CC4)cc21)c1sccc1Cl (stereo not drawn) [Ind_CC-103, 3-chloro-N-[6-[9-(4-fluorophenyl)-3,9-diazaspiro[5.5]undecane-3-carbonyl]-2,3-dihydro-1H-inden-1-yl]-thiophene-2-carboxylic acid amide]",62%,93%,,
"O=C(NC1CCc2ccc(C(=O)N3CCC4(CCN(Cc5ccncc5)CC4)CC3)cc21)c1sccc1Cl (stereo not drawn) [Ind_CC-104, 3-chloro-N-[6-[9-(pyridin-4-yl-methyl)-3,9-diazaspiro[5.5]undecane-3-carbonyl]-2,3-dihydro-1H-inden-1-yl]-thiophene-2-carboxylic acid amide]",102%,33%,,
"CN(C)C1(c2ccc(F)cc2)CCC2(CCN(C(=O)c3ccc4c(c3)C(NC(=O)c3sccc3Cl)CC4)CC2)CC1 (stereo not drawn) [Ind_CC-105, 3-chloro-N-[6-[9-dimethylamino-9-(4-fluorophenyl)-3-azaspiro[5.5]undecane-3-carbonyl]-2,3-dihydro-1H-inden-1-yl]-thiophene-2-carboxylic acid amide]",86%,61%,,
"CN(C(=O)c1ccccc1Cl)C1CCc2ccc(C(=O)N3CCC4(CC3)CCN(c3ccncc3)CC4)cc21 (stereo not drawn) [Ind_CC-106, 2-chloro-N-methyl-N-[6-(9-pyridin-4-yl-3,9-diazaspiro[5.5]undecane-3-carbonyl)-2,3-dihydro-1H-inden-1-yl]-benzamide]",100%,100%,,
"CN(C(=O)c1ccccc1Cl)C1CCc2ccc(C(=O)N3CCC4(CC3)CCN(c3cccnc3)CC4)cc21 (stereo not drawn) [Ind_CC-107, 2-chloro-N-methyl-N-[6-(9-pyridin-3-yl-3,9-diazaspiro[5.5]undecane-3-carbonyl)-2,3-dihydro-1H-inden-1-yl]-benzamide]",100%,78%,,
"CN(C(=O)c1ccccc1Cl)C1CCc2ccc(C(=O)N3CCC4(CC3)CCN(c3ccc(F)cc3)CC4)cc21 (stereo not drawn) [Ind_CC-108, 2-chloro-N-[6-[9-(4-fluorophenyl)-3,9-diazaspiro[5.5]undecane-3-carbonyl]-2,3-dihydro-1H-inden-1-yl]-N-methyl-benzamide]",51%,23%,,
"CN(C(=O)c1ccccc1Cl)C1CCc2ccc(C(=O)N3CCC4(CCN(Cc5ccncc5)CC4)CC3)cc21 (stereo not drawn) [Ind_CC-109, 2-chloro-N-methyl-N-[6-[9-(pyridin-4-yl-methyl)-3,9-diazaspiro[5.5]undecane-3-carbonyl]-2,3-dihydro-1H-inden-1-yl]-benzamide]",29%,33%,,
"CN(C(=O)c1ccccc1Cl)C1CCc2ccc(C(=O)N3CCC4(CC3)CCC(c3ccc(F)cc3)(N(C)C)CC4)cc21 (stereo not drawn) [Ind_CC-110, 2-chloro-N-[6-[9-dimethylamino-9-(4-fluorophenyl)-3-azaspiro[5.5]undecane-3-carbonyl]-2,3-dihydro-1H-inden-1-yl]-N-methyl-benzamide]",79%,52%,,
"CN(C(=O)c1ccccc1Cl)C1CCc2ccc(C(=O)N3CCC4(CCN(c5ccncc5)CC4)C3)cc21 (stereo not drawn) [Ind_CC-111, 2-chloro-N-methyl-N-[6-(8-pyridin-4-yl-2,8-diazaspiro[4.5]decane-2-carbonyl)-2,3-dihydro-1H-inden-1-yl]-benzamide]",101%,100%,,
"CN(C(=O)c1ccccc1Cl)C1CCc2ccc(C(=O)N3CCC4(CC3)CCN(c3ccncc3)C4)cc21 (stereo not drawn) [Ind_CC-112, 2-chloro-N-methyl-N-[6-(2-pyridin-4-yl-2,8-diazaspiro[4.5]decane-8-carbonyl)-2,3-dihydro-1H-inden-1-yl]-benzamide]",104%,100%,,
"O=C(c1ccc2c(c1)C(N(C(=O)c1ccccc1Cl)C1CC1)CC2)N1CCC2(CC1)CCN(c1ccncc1)CC2 (stereo not drawn) [Ind_CC-113, 2-chloro-N-cyclopropyl-N-[6-(9-pyridin-4-yl-3,9-diazaspiro[5.5]undecane-3-carbonyl)-2,3-dihydro-1H-inden-1-yl]-benzamide]",100%,98%,,
"O=C(c1ccc2c(c1)C(N(C(=O)c1ccccc1Cl)C1CC1)CC2)N1CCC2(CC1)CCN(c1cccnc1)CC2 (stereo not drawn) [Ind_CC-114, 2-chloro-N-cyclopropyl-N-[6-(9-pyridin-3-yl-3,9-diazaspiro[5.5]undecane-3-carbonyl)-2,3-dihydro-1H-inden-1-yl]-benzamide]",101%,99%,,
"O=C(c1ccc2c(c1)C(N(C(=O)c1ccccc1Cl)C1CC1)CC2)N1CCC2(CC1)CCN(c1ccc(F)cc1)CC2 (stereo not drawn) [Ind_CC-115, 2-chloro-N-cyclopropyl-N-[6-[9-(4-fluorophenyl)-3,9-diazaspiro[5.5]undecane-3-carbonyl]-2,3-dihydro-1H-inden-1-yl]-benzamide]",64%,22%,,
"O=C(c1ccc2c(c1)C(N(C(=O)c1ccccc1Cl)C1CC1)CC2)N1CCC2(CCN(Cc3ccncc3)CC2)CC1 (stereo not drawn) [Ind_CC-116, 2-chloro-N-cyclopropyl-N-[6-[9-(pyridin-4-yl-methyl)-3,9-diazaspiro[5.5]undecane-3-carbonyl]-2,3-dihydro-1H-inden-1-yl]-benzamide]",77%,68%,,
